Test results reported in PubChem BioAssay AID256 (DTP/NCI, 2004).
Inconclusive results and toxic doses are left out. The calls were made as follows: active = survival T/C of 150% or more; inactive = T/C below 125% in these data.

Test system: CD2F1 mice, L1210 leukemia ip, survival T/C
Experiment: NCI In Vivo Anticancer Drug Screen. Data for tumor model L1210 Leukemia (intraperitoneal) in CD2F1 (CDF1) mice
Details: higher = longer survival
Procedure, shortened: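 Antitumor effect is scored in animals hosting a serially transplanted tumor. Values compare compound-dosed animals against vehicle-only controls as a simple quotient.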

[1] = endpoint: mean survival time, dose: 400.0 mg/kg/injection, schedule: Q04DX003 (ip), vehicle: saline with Tween-80
[2] = endpoint: mean survival time, dose: 100.0 mg/kg/injection, schedule: Q04DX003 (ip), vehicle: saline with Tween-80
[3] = endpoint: mean survival time, dose: 200.0 mg/kg/injection, schedule: Q04DX003 (ip), vehicle: saline with Tween-80
[4] = endpoint: mean survival time, dose: 12.5 mg/kg/injection, schedule: Q01DX005 (ip), vehicle: distilled water + Tween-80
[5] = endpoint: mean survival time, dose: 25.0 mg/kg/injection, schedule: Q01DX005 (ip), vehicle: distilled water + Tween-80
[6] = endpoint: mean survival time, dose: 50.0 mg/kg/injection, schedule: Q01DX005 (ip), vehicle: distilled water + Tween-80
[7] = endpoint: mean survival time, dose: 100.0 mg/kg/injection, schedule: Q01DX005 (ip), vehicle: distilled water + Tween-80
[8] = endpoint: mean survival time, dose: 25.0 mg/kg/injection, schedule: Q04DX003 (ip), vehicle: saline with Tween-80
[9] = endpoint: mean survival time, dose: 50.0 mg/kg/injection, schedule: Q04DX003 (ip), vehicle: saline with Tween-80

Measured: T/C

O=C1NC2C=CC3C=CC=CC2C13 (centres undefined)
inactive: endpoint: median survival time, dose: 25.0 mg/kg/injection, schedule: Q04DX002 (ip), vehicle: saline with Tween-80 100 % of control | endpoint: median survival time, dose: 50.0 mg/kg/injection, schedule: Q04DX002 (ip), vehicle: saline with Tween-80 100 % of control | endpoint: median survival time, dose: 100.0 mg/kg/injection, schedule: Q04DX002 (ip), vehicle: saline with Tween-80 100 % of control | endpoint: median survival time, dose: 200.0 mg/kg/injection, schedule: Q04DX002 (ip), vehicle: saline with Tween-80 100 % of control

N=C(N)SCSC(=N)N
inactive: endpoint: mean survival time, dose: 100.0 mg/kg/injection, schedule: Q04DX003 (ip), vehicle: saline 100 % of control | endpoint: mean survival time, dose: 200.0 mg/kg/injection, schedule: Q04DX003 (ip), vehicle: saline 103 % of control

CC(=O)NCCc1ccc2c(c1)[nH]c1ccccc12
inactive: endpoint: mean survival time, dose: 100.0 mg/kg/injection, schedule: Q01DX001 (ip), vehicle: saline 101 % of control | endpoint: mean survival time, dose: 200.0 mg/kg/injection, schedule: Q01DX001 (ip), vehicle: saline 100 % of control | endpoint: mean survival time, dose: 400.0 mg/kg/injection, schedule: Q01DX001 (ip), vehicle: saline 93 % of control

C[C@]1(O)CC[C@H]2[C@@H]3CCC4=CC(=O)CC[C@]4(C)[C@@]3(Cl)[C@@H](O)C[C@@]21C
inactive: endpoint: mean survival time, dose: 100.0 mg/kg/injection, schedule: Q04DX003 (ip), vehicle: saline sonified 101 % of control | endpoint: mean survival time, dose: 176.0 mg/kg/injection, schedule: Q04DX003 (ip), vehicle: saline with Tween-80 91 % of control | endpoint: mean survival time, dose: 200.0 mg/kg/injection, schedule: Q04DX003 (ip), vehicle: saline sonified 107 % of control | endpoint: mean survival time, dose: 264.0 mg/kg/injection, schedule: Q04DX003 (ip), vehicle: saline with Tween-80 96 % of control | [1] 94 % of control

CCC(CO)[N-]CC[N-]C(CC)CO.[Cl][Pt+2][Cl] (centres undefined)
inactive: endpoint: median survival time, dose: 6.25 mg/kg/injection, schedule: Q04DX003 (ip), vehicle: saline 101 % of control | endpoint: median survival time, dose: 12.5 mg/kg/injection, schedule: Q04DX003 (ip), vehicle: saline 107 % of control | endpoint: median survival time, dose: 25.0 mg/kg/injection, schedule: Q04DX003 (ip), vehicle: saline 109 % of control | endpoint: median survival time, dose: 50.0 mg/kg/injection, schedule: Q04DX003 (ip), vehicle: saline 121 % of control

COc1ccc(-c2[nH]c(=S)[nH]c(=O)c2CCO)cc1
inactive: endpoint: mean survival time, dose: 100.0 mg/kg/injection, schedule: Q01DX009 (ip), vehicle: saline with Tween-80 93 % of control | [2] 90 % of control | [3] 88 % of control | endpoint: mean survival time, dose: 400.0 mg/kg/injection, schedule: Q01DX009 (ip), vehicle: saline with Tween-80 92 % of control | [1] 95 % of control

Nc1nc2c(nc(NCc3ccccc3)n2C2OC(CO)C(O)C2O)c(=O)[nH]1 (centres undefined)
inactive: endpoint: mean survival time, dose: 6.25 mg/kg/injection, schedule: Q01DX005 (ip), vehicle: distilled water + Tween-80 97 % of control | [4] 95 % of control | [5] 95 % of control | [6] 90 % of control | [7] 90 % of control

CCOC(=O)CCCCCSc1nn(C2OC(COC(=O)c3ccccc3)C(OC(=O)c3ccccc3)C2OC(=O)c2ccccc2)c(=O)[nH]c1=O (centres undefined)
inactive: [4] 101 % of control | [5] 107 % of control | [6] 95 % of control | [7] 106 % of control | endpoint: mean survival time, dose: 200.0 mg/kg/injection, schedule: Q01DX005 (ip), vehicle: distilled water + Tween-80 107 % of control

CCCCCCCC/C=C\CCCCCCCC(=O)NCCN1CCCCC1
inactive: endpoint: mean survival time, dose: 75.0 mg/kg/injection, schedule: Q01DX001 (ip), vehicle: saline 100 % of control | endpoint: mean survival time, dose: 150.0 mg/kg/injection, schedule: Q01DX001 (ip), vehicle: saline 96 % of control | endpoint: mean survival time, dose: 300.0 mg/kg/injection, schedule: Q01DX001 (ip), vehicle: saline 96 % of control

C=CCc1cc(CNCC(O)c2ccccc2)c(O)c(OC)c1 (centres undefined)
inactive: endpoint: mean survival time, dose: 25.0 mg/kg/injection, schedule: Q01DX009 (ip), vehicle: Klucel (hydroxypropylcellulose) (HPC) 89 % of control | endpoint: mean survival time, dose: 50.0 mg/kg/injection, schedule: Q01DX009 (ip), vehicle: Klucel (hydroxypropylcellulose) (HPC) 112 % of control

COc1cc2ccc(CCN)cc2cc1OC
inactive: endpoint: mean survival time, dose: 12.5 mg/kg/injection, schedule: Q04DX003 (ip), vehicle: saline with Tween-80 102 % of control | [8] 102 % of control | [9] 96 % of control

CN(C)c1ccc(C2OC3(CCCCC3)C[N+]23CCCC3)cc1 (centres undefined)
inactive: endpoint: mean survival time, dose: 3.12 mg/kg/injection, schedule: Q01DX009 (ip), vehicle: saline with Tween-80 101 % of control | endpoint: mean survival time, dose: 6.25 mg/kg/injection, schedule: Q01DX009 (ip), vehicle: saline with Tween-80 97 % of control | endpoint: mean survival time, dose: 12.5 mg/kg/injection, schedule: Q01DX009 (ip), vehicle: saline with Tween-80 97 % of control

Cc1ccc(NC(=O)Oc2ccc(Br)cc2Br)c([N+](=O)[O-])c1
inactive: [9] 106 % of control | [2] 104 % of control | [3] 96 % of control | [1] 100 % of control | endpoint: median survival time, dose: 100.0 mg/kg/injection, schedule: Q01DX009 (ip), vehicle: saline with Tween-80 98 % of control | endpoint: median survival time, dose: 200.0 mg/kg/injection, schedule: Q01DX009 (ip), vehicle: saline with Tween-80 100 % of control | endpoint: median survival time, dose: 400.0 mg/kg/injection, schedule: Q01DX009 (ip), vehicle: saline with Tween-80 105 % of control | endpoint: median survival time, dose: 800.0 mg/kg/injection, schedule: Q01DX009 (ip), vehicle: saline with Tween-80 101 % of control

OCC1OC(n2ncc3c(Nc4ccccc4)ncnc32)C(O)C1O (centres undefined)
inactive: endpoint: mean survival time, dose: 6.25 mg/kg/injection, schedule: Q01DX005 (ip), vehicle: other 97 % of control | endpoint: mean survival time, dose: 12.5 mg/kg/injection, schedule: Q01DX005 (ip), vehicle: other 91 % of control | endpoint: mean survival time, dose: 25.0 mg/kg/injection, schedule: Q01DX005 (ip), vehicle: other 100 % of control | endpoint: mean survival time, dose: 50.0 mg/kg/injection, schedule: Q01DX005 (ip), vehicle: other 96 % of control | endpoint: mean survival time, dose: 100.0 mg/kg/injection, schedule: Q01DX005 (ip), vehicle: other 92 % of control | endpoint: mean survival time, dose: 200.0 mg/kg/injection, schedule: Q01DX005 (ip), vehicle: other 96 % of control | endpoint: mean survival time, dose: 400.0 mg/kg/injection, schedule: Q01DX005 (ip), vehicle: other 96 % of control

CC1=NCCCN=C(C)C(C)=NCCCN=C1C.[Ni+2].[O-][Cl+3]([O-])([O-])O
inactive: endpoint: mean survival time, dose: 25.0 mg/kg/injection, schedule: Q04DX003 (ip), vehicle: saline 91 % of control | endpoint: mean survival time, dose: 50.0 mg/kg/injection, schedule: Q04DX002 (ip), vehicle: saline with Tween-80 96 % of control | endpoint: mean survival time, dose: 50.0 mg/kg/injection, schedule: Q04DX003 (ip), vehicle: saline 94 % of control

O=C1OC(/C=C/c2ccccc2)=NC/1=C\c1ccccc1Cl
inactive: endpoint: mean survival time, dose: 100.0 mg/kg/injection, schedule: Q04DX002 (ip), vehicle: saline with Tween-80 103 % of control | endpoint: mean survival time, dose: 200.0 mg/kg/injection, schedule: Q04DX002 (ip), vehicle: saline with Tween-80 103 % of control | endpoint: mean survival time, dose: 400.0 mg/kg/injection, schedule: Q04DX002 (ip), vehicle: saline with Tween-80 91 % of control

CCCCCCCCCCCCCCOc1ccc(OCCCCCCCCC)cc1
inactive: endpoint: mean survival time, dose: 100.0 mg/kg/injection, schedule: Q01DX001 (ip), vehicle: saline with Tween-80 94 % of control | endpoint: mean survival time, dose: 200.0 mg/kg/injection, schedule: Q01DX001 (ip), vehicle: saline with Tween-80 94 % of control | endpoint: mean survival time, dose: 400.0 mg/kg/injection, schedule: Q01DX001 (ip), vehicle: saline with Tween-80 95 % of control

OCCNC(=S)Nc1ccccc1
inactive: endpoint: mean survival time, dose: 7.5 mg/kg/injection, schedule: Q01DX009 (ip), vehicle: saline 97 % of control | endpoint: mean survival time, dose: 15.0 mg/kg/injection, schedule: Q01DX009 (ip), vehicle: saline 95 % of control | [8] 98 % of control | endpoint: mean survival time, dose: 30.0 mg/kg/injection, schedule: Q01DX009 (ip), vehicle: saline 89 % of control | [9] 101 % of control | [2] 100 % of control
